From publication PMC8945229, “Development and Biological Characterization of a Novel Selective TrkA Agonist with Neuroprotective Properties against Amyloid Toxicity” (Biomedicines, 2022)

Experiments:
[1] = system: HEK cells transfected with p75NTR; test: CellTox assay in serum-starved HEK cells transfected with p75NTR; type: cell-based; settings: 500 nM, 24hrs
Experimental: (A) HEK cells transfected with p75NTR and Traf6 were treated with ENT-A013 (500nM) or NGF (100ng/ml) for 30’ and then were subjected to immunoprecipitation experiments against p75.
(C) HEK cells transfected with p75NTR were starved from serum and treated with ENT-A013 (500nM) or NGF (100ng/ml) for 24hrs and subsequently subjected to CellTox assay. […]
difference between ENT-A013 treated group and negative control (Serum Free).
(1 picture or pasted object on this page, not shown here)

p75^NTR = target: T1, p75^NTR (Homo sapiens, UniProt P08138); test: p75NTR activation in HEK cells transfected with p75NTR and Traf6 (immunoprecipitation); type: cell-based; settings: 500 nM, 30′
T1 construct: expressed in transfected cells; host or cells: HEK293T (transient, lipofectamine)
Experimental: PC12 and HEK293T cells were obtained from LGC Promochem GmbH (Teddington, UK) and cultured under the conditions specified by the manufacturer. NIH3T3 cells were stably transfected with human TrkB plasmid. PC12 cells were grown in DMEM medium (11965084, Gibco, Grand Island, NY, USA) containing 10% Horse Serum (16050122, Gibco, Grand Island, NY, USA), 5% Fetal Bovine Serum (10270106, Gibco, Grand Island, NY, USA), 100 units/mL Penicillin and 0.1 mg/mL Streptomycin (15140122, Gibco, Grand Island, NY, USA) at 5% CO2 and 37 °C. Cells were used between passages 5–20. HEK293T and NIH3T3 cells were grown in the same medium as PC12 cells supplemented with 10% Fetal Bovine Serum and lacking Horse Serum. For transient transfection of HEK293T cells, lipofectamine was used and cells were transfected with human p75^NTR and Traf6 plasmids. To determine the intracellular activity of endogenous secretases, we tagged (tGFP) a truncated mutant (Tm) of APP containing the original amino acids sequence from M516 to N773. This Tm conserves the secretases cleavage sites, clathrin binding site, tau protein binding site, collagen binding site and some glycosylation sites critical for protein localization and intracellular trafficking. The cDNA of the TmAPP gene was amplified by PCR and subcloned into pturbo-GFP vector. […]

T1 sequence (P08138 29-427): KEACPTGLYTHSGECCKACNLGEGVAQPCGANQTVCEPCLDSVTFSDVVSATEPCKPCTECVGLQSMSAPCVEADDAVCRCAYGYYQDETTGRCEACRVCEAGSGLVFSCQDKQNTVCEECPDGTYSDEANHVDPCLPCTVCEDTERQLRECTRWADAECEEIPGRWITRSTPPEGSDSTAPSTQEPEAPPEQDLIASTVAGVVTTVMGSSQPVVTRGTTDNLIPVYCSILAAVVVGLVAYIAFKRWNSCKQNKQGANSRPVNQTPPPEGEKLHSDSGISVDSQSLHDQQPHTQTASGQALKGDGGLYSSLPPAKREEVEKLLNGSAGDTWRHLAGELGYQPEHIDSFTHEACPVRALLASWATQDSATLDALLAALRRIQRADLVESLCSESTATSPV

CC12CCC(O)CC1=CCC1C2CCC2(C)C1CCC21CC1C=CBr [ENT-A013, (2′R,3S,17S)-2′-(2-Bromovinyl)-5-Androstene-17,1′-Cyclopropan-3-ol]
cell death vs negative control (Serum Free) (in words) [1]: no significant | p75NTR activation (in words) (p75^NTR): does not activate
